Laboratory results from paper PMC5513037, “Examining the influence of specificity ligands and ATP-competitive ligands on the overall effectiveness of bivalent kinase inhibitors” (Proteome Science, 2017).

Assays:
Experiment in all cases: KAM-matrix competition in K562 lysate;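 on 0.001 uM KAM: median log10 fold change of treatment over DMSO control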;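 on 0.01 uM KAM: median log10 fold change of treatment over DMSO control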;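 on 0.1 uM KAM: median log10 fold change of treatment over DMSO control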;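 on 1 uM KAM: median log10 fold change of treatment over DMSO control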;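 on 10 uM KAM: median log10 fold change of treatment over DMSO control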
Format in all cases: binding
SIK2 = molecular target: T1, SIK2 (Homo sapiens, UniProt Q9H0K1)
T1 construct: endogenous in cells; host or cells: K562 cells (lysate)
T1 sequence (Q9H0K1 whole entry): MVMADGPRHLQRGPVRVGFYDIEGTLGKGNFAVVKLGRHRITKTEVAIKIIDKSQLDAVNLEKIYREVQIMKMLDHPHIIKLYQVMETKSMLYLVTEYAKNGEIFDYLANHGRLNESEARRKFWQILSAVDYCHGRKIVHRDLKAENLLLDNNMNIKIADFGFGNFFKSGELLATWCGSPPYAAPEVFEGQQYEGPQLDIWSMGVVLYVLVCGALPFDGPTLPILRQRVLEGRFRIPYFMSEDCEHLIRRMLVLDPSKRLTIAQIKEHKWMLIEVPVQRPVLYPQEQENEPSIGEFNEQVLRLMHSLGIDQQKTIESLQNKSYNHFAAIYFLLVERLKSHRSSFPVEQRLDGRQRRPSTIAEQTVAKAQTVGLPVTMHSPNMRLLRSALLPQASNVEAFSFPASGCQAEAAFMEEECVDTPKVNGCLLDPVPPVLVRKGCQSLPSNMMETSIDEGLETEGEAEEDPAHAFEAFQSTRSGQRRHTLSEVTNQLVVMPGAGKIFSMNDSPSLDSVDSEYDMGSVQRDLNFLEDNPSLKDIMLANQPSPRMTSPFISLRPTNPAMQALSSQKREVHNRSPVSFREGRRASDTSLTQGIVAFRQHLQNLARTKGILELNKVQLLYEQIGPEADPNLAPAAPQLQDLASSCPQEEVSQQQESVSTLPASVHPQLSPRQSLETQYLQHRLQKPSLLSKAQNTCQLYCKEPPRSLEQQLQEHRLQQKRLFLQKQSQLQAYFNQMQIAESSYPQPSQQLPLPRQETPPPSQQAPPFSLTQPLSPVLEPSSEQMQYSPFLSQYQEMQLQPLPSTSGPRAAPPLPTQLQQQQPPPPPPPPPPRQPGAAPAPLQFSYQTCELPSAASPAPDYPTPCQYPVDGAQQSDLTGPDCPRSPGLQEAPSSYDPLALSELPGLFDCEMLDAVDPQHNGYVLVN
Procedure: (§1) Supplement 12953_2017_125_MOESM1_ESM.zip/MS_Supp Info.xlsx, sheet "KAM" | column: 10 uM KAM; 1 uM KAM; 0.1 uM KAM; 0.01 uM KAM; 0.001 uM KAM; RB50

CDK5 = molecular target: T2, CDK5 (Homo sapiens, UniProt Q00535)
T2 construct: endogenous in cells; host or cells: K562
T2 sequence (Q00535 whole entry): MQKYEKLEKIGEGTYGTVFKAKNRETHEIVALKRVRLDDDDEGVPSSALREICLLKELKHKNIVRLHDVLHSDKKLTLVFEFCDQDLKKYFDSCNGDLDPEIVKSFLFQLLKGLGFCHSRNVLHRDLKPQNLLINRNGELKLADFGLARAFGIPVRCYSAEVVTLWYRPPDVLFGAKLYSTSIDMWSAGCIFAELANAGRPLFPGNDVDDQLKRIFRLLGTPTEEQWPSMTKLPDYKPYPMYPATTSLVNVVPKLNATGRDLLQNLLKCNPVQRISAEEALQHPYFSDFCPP
Procedure: as §1

PKN1 = molecular target: T3, PKN1 (Homo sapiens, UniProt Q16512);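 on 0.001 uM KAM: median log10 fold change of treatment over DMSO control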;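 on 0.01 uM KAM: median log10 fold change of treatment over DMSO control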;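 on 0.1 uM KAM: median log10 fold change of treatment over DMSO control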;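 on 1 uM KAM: median log10 fold change of treatment over DMSO control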;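 on 10 uM KAM: median log10 fold change of treatment over DMSO control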
T3 construct: endogenous in cells; host or cells: K562
Procedure: as §1

PAK4 = molecular target: T4, PAK4 (Homo sapiens, UniProt O96013)
T4 construct: endogenous in cells; host or cells: K562
T4 sequence (O96013 whole entry): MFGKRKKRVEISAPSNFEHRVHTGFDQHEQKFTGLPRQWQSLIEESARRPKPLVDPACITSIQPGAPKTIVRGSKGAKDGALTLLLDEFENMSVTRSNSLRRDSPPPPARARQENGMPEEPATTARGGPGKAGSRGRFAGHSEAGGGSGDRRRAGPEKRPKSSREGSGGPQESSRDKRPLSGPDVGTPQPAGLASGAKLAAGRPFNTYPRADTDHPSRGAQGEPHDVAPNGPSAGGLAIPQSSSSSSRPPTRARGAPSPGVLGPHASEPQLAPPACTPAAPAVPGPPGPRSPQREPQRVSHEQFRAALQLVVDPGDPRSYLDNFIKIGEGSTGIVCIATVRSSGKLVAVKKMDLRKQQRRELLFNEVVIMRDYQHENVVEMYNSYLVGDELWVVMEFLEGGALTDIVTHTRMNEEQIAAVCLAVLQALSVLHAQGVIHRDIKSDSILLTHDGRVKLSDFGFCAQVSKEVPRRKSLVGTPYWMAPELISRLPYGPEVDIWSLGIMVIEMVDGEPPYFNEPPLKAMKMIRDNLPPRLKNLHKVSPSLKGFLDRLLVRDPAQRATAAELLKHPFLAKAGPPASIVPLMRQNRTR
Procedure: as §1

PIK3R4 = molecular target: T5, PIK3R4 (Homo sapiens, UniProt Q99570);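 on 0.001 uM KAM: median log10 fold change of treatment over DMSO control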;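 on 0.01 uM KAM: median log10 fold change of treatment over DMSO control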;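 on 0.1 uM KAM: median log10 fold change of treatment over DMSO control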;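 on 1 uM KAM: median log10 fold change of treatment over DMSO control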;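 on 10 uM KAM: median log10 fold change of treatment over DMSO control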
T5 construct: endogenous in cells; host or cells: K562
T5 sequence (Q99570 2-1358 limits assumed): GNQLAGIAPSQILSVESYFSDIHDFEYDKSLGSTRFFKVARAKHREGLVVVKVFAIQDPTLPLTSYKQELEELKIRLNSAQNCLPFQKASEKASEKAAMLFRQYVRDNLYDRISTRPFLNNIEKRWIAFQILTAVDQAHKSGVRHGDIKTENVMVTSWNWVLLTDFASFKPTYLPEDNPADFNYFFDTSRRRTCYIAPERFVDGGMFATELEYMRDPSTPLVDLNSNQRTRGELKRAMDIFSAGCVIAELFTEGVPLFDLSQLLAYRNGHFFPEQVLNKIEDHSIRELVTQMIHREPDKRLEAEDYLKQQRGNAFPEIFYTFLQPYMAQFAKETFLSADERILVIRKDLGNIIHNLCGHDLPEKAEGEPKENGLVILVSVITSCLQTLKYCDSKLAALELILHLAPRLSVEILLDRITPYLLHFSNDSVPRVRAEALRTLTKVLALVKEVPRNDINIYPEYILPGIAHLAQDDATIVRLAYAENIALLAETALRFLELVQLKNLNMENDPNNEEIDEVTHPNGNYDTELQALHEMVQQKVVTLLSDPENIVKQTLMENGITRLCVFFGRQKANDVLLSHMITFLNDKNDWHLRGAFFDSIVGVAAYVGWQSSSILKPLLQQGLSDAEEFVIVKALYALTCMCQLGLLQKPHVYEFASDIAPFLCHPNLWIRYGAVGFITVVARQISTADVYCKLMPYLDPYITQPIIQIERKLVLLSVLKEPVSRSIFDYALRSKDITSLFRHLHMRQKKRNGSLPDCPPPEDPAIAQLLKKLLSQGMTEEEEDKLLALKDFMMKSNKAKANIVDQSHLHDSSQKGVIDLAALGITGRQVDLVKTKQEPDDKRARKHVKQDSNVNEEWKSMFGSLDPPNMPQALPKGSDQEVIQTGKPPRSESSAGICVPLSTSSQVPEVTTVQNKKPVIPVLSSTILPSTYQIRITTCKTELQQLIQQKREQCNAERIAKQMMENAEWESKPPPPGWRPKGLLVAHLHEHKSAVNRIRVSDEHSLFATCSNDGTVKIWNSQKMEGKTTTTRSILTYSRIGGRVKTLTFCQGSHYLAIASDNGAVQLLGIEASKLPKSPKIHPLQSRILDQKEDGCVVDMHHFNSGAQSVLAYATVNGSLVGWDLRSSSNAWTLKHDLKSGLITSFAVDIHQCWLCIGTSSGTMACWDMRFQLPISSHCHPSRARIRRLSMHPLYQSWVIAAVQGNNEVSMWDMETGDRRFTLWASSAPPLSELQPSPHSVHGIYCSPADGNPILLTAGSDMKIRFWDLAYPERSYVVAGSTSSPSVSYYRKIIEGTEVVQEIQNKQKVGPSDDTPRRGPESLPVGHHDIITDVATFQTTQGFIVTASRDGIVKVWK
T5 sequence (Q8NEB9 whole entry partner): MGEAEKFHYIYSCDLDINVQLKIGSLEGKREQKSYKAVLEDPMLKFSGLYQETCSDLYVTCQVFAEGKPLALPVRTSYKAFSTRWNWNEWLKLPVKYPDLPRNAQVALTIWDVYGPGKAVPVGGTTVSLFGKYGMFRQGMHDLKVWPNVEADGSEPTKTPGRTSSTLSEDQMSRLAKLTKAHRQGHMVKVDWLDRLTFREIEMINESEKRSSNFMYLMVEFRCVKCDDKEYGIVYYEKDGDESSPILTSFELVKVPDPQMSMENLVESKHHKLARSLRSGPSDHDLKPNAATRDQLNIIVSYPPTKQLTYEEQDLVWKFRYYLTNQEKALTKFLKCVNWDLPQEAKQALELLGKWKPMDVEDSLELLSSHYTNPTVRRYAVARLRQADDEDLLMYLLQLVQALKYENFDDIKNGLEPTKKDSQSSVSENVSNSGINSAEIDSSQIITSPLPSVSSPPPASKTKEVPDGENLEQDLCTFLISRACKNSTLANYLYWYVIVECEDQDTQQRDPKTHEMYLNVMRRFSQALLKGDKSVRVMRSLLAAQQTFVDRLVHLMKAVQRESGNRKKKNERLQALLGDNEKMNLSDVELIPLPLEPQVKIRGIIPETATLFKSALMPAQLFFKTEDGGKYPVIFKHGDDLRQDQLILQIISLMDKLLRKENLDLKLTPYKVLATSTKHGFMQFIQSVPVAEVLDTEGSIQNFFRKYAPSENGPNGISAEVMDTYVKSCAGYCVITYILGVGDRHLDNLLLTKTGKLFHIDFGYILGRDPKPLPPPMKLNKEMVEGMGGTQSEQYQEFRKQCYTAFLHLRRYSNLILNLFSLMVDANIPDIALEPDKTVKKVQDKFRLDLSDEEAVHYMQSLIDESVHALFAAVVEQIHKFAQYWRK
Procedure: as §1

ARAF = molecular target: T6, ARAF (Homo sapiens, UniProt P10398);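 on 0.001 uM KAM: median log10 fold change of treatment over DMSO control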;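 on 0.01 uM KAM: median log10 fold change of treatment over DMSO control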;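 on 0.1 uM KAM: median log10 fold change of treatment over DMSO control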;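 on 1 uM KAM: median log10 fold change of treatment over DMSO control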;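 on 10 uM KAM: median log10 fold change of treatment over DMSO control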
T6 construct: endogenous in cells; host or cells: K562
T6 sequence (P10398 1-606): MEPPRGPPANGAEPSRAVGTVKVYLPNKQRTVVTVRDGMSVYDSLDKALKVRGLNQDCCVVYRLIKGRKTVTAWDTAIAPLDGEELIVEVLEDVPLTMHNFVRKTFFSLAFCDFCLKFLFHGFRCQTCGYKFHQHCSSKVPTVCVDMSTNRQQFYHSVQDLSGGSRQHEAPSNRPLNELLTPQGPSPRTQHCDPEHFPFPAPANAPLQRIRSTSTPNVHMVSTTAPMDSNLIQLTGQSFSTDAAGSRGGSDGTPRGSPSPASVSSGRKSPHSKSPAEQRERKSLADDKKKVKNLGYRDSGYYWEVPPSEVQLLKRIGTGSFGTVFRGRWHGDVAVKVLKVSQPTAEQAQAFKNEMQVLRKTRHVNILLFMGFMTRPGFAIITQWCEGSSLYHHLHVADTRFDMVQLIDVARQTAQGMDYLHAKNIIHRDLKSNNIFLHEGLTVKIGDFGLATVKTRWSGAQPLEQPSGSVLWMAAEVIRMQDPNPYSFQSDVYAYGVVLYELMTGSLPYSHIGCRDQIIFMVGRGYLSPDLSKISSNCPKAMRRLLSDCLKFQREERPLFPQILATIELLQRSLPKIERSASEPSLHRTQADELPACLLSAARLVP
Procedure: as §1

MAPKAPK5 = molecular target: T7, MAPKAPK5 (Homo sapiens, UniProt Q8IW41)
T7 construct: endogenous in cells; host or cells: K562
T7 sequence (Q8IW41 1-473): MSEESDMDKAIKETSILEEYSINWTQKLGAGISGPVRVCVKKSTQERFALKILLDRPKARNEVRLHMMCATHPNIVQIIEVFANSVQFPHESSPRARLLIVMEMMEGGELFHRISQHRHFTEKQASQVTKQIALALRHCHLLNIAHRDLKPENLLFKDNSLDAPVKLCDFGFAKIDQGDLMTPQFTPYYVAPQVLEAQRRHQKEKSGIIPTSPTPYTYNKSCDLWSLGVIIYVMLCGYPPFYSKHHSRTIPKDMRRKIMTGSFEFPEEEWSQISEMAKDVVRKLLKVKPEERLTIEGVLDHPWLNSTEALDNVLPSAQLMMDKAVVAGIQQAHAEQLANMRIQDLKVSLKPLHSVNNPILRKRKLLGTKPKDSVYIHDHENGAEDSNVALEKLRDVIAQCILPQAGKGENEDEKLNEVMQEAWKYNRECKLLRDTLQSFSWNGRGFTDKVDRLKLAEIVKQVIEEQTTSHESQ
Procedure: as §1

MAP2K1 = molecular target: T8, MAP2K1 (Homo sapiens, UniProt Q02750)
T8 construct: endogenous in cells; host or cells: K562
T8 sequence (Q02750 whole entry): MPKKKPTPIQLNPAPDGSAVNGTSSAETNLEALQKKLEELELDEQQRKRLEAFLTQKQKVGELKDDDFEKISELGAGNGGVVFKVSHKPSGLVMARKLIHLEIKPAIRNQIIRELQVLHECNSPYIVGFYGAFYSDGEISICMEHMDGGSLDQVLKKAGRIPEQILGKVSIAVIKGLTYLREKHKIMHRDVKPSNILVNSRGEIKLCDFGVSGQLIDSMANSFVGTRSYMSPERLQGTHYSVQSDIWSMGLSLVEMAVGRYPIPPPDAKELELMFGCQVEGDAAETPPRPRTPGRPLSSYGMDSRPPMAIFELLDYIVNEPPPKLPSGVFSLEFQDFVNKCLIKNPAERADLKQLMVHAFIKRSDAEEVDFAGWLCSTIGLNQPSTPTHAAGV
Procedure: as §1

FGFR3 = molecular target: T9, FGFR3 (Homo sapiens, UniProt P22607)
T9 construct: endogenous in cells; host or cells: K562
Procedure: as §1

NTRK1 = molecular target: T10, NTRK1 (Homo sapiens, UniProt P04629)
T10 construct: endogenous in cells; host or cells: K562
Procedure: as §1

AURKB = molecular target: T11, AURKB (Homo sapiens, UniProt Q96GD4)
T11 construct: endogenous in cells; host or cells: K562
T11 sequence (Q96GD4 whole entry): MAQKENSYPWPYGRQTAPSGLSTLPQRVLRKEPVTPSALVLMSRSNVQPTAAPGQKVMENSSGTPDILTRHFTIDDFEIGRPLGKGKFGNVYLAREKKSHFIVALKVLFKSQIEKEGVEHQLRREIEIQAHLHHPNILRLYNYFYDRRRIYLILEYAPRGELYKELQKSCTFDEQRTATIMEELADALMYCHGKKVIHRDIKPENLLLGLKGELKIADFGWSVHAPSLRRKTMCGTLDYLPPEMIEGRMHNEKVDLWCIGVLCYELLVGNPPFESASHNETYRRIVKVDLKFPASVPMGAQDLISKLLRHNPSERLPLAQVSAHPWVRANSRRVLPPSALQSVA
Procedure: as §1

[1] = read-out: RB50 (the source's name)
[2] = KAM 0.001-10 uM, read-out: RB50 (the source's name)

With N#CCc1ccc(Nc2nc(NCCCN)cc(Nc3cc(C4CC4)[nH]n3)n2)cc1 [KAM] the “median Log10 fold change” value (SIK2; 0.001 uM KAM) was -0.01021, the “median Log10 fold change” value (SIK2; 0.01 uM KAM) was -0.008818 and the “median Log10 fold change” value (SIK2; 0.1 uM KAM) was -0.08618. The “median Log10 fold change” value (SIK2; 1 uM KAM) was -0.3925, the “median Log10 fold change” value (SIK2; 10 uM KAM) was -0.5017 and the IC50 (SIK2; [1]) was 0.798 µM. The “median Log10 fold change” value (CDK5; 0.001 uM KAM) was 0.003574, the “median Log10 fold change” value (CDK5; 0.01 uM KAM) was 0.001841 and the “median Log10 fold change” value (CDK5; 0.1 uM KAM) was -0.2018. For the same compound, the “median Log10 fold change” value (CDK5; 1 uM KAM) was -0.5013, the “median Log10 fold change” value (CDK5; 10 uM KAM) was -0.5902 and the IC50 (CDK5; [1]) was 0.298 µM. The IC50 (PKN1; [2]) was over 10 µM, the “0.001 uM KAM” value (PKN1; relative to 0 uM KAM = 0) was -0.02702 and the “0.01 uM KAM” value (PKN1; relative to 0 uM KAM = 0) was -0.01686. The “0.1 uM KAM” value (PKN1; relative to 0 uM KAM = 0) was -0.08252, the “1 uM KAM” value (PKN1; relative to 0 uM KAM = 0) was -0.1762 and the “10 uM KAM” value (PKN1; relative to 0 uM KAM = 0) was -0.2257. For the same compound, the “median Log10 fold change” value (PAK4; 0.001 uM KAM) was -0.02305, the “median Log10 fold change” value (PAK4; 0.01 uM KAM) was -0.006782 and the “median Log10 fold change” value (PAK4; 0.1 uM KAM) was -0.1812. The “median Log10 fold change” value (PAK4; 1 uM KAM) was -0.403, the “median Log10 fold change” value (PAK4; 10 uM KAM) was -0.4884 and the IC50 (PAK4; [1]) was 0.527 µM. The IC50 (PIK3R4; [2]) was over 10 µM, the “0.001 uM KAM” value (PIK3R4; relative to 0 uM KAM = 0) was -0.04609 and the “0.01 uM KAM” value (PIK3R4; relative to 0 uM KAM = 0) was 0.02295. For the same compound, the “0.1 uM KAM” value (PIK3R4; relative to 0 uM KAM = 0) was -0.02338, the “1 uM KAM” value (PIK3R4; relative to 0 uM KAM = 0) was -0.03171 and the “10 uM KAM” value (PIK3R4; relative to 0 uM KAM = 0) was -0.01923. The IC50 (ARAF; [2]) was over 10 µM, the “0.001 uM KAM” value (ARAF; relative to 0 uM KAM = 0) was -0.04442 and the “0.01 uM KAM” value (ARAF; relative to 0 uM KAM = 0) was -0.008723. For the same compound, the “0.1 uM KAM” value (ARAF; relative to 0 uM KAM = 0) was -0.09412, the “1 uM KAM” value (ARAF; relative to 0 uM KAM = 0) was -0.1283 and the “10 uM KAM” value (ARAF; relative to 0 uM KAM = 0) was -0.1374. The “median Log10 fold change” value (MAPKAPK5; 0.001 uM KAM) was 0.03286, the “median Log10 fold change” value (MAPKAPK5; 0.01 uM KAM) was -0.006541 and the “median Log10 fold change” value (MAPKAPK5; 0.1 uM KAM) was -0.1605. For the same compound, the “median Log10 fold change” value (MAPKAPK5; 1 uM KAM) was -0.3604, the “median Log10 fold change” value (MAPKAPK5; 10 uM KAM) was -0.4852 and the IC50 (MAPKAPK5; [1]) was 0.729 µM. The “median Log10 fold change” value (MAP2K1; 0.001 uM KAM) was -0.01014, the “median Log10 fold change” value (MAP2K1; 0.01 uM KAM) was -0.05282 and the “median Log10 fold change” value (MAP2K1; 0.1 uM KAM) was -0.2542. For the same compound, the “median Log10 fold change” value (MAP2K1; 1 uM KAM) was -0.5685, the “median Log10 fold change” value (MAP2K1; 10 uM KAM) was -0.7087 and the IC50 (MAP2K1; [1]) was 0.164 µM. The “median Log10 fold change” value (FGFR3; 0.001 uM KAM) was 0.01443, the “median Log10 fold change” value (FGFR3; 0.01 uM KAM) was 0.001015 and the “median Log10 fold change” value (FGFR3; 0.1 uM KAM) was -0.1738. For the same compound, the “median Log10 fold change” value (FGFR3; 1 uM KAM) was -0.319, the “median Log10 fold change” value (FGFR3; 10 uM KAM) was -0.3424 and the IC50 (FGFR3; [1]) was 1.16 µM. For the same compound, the “median Log10 fold change” value (NTRK1; 0.001 uM KAM) was -0.002125, the “median Log10 fold change” value (NTRK1; 0.01 uM KAM) was -0.003481 and the “median Log10 fold change” value (NTRK1; 0.1 uM KAM) was -0.123. For the same compound, the “median Log10 fold change” value (NTRK1; 1 uM KAM) was -0.3463, the “median Log10 fold change” value (NTRK1; 10 uM KAM) was -0.5086 and the IC50 (NTRK1; [1]) was 0.869 µM. The “median Log10 fold change” value (AURKB; 0.001 uM KAM) was 0.001732, the “median Log10 fold change” value (AURKB; 0.01 uM KAM) was -0.09106 and the “median Log10 fold change” value (AURKB; 0.1 uM KAM) was -0.3265. For the same compound, the “median Log10 fold change” value (AURKB; 1 uM KAM) was -0.4096, the “median Log10 fold change” value (AURKB; 10 uM KAM) was -0.3913 and the IC50 (AURKB; [1]) was 0.137 µM.
